`CCCC1=C(C(=O)OCC)C(c2cnc[nH]2)c2c[nH]nc2N1` (centres unmarked) [Example 238, Ethyl 4,7-dihydro-4-(1H-imidazol-5-yl)-6-propyl-2H-pyrazolo[3,4-b]pyridine-5-carboxylate] showed a melting point of 200 °C. `CC(C)(C)OC(=O)N1CCOC(C2=C(C#N)C(c3cccc(C#N)c3Br)c3c[nH]nc3N2)C1` (centres unmarked) [Example 1044, 4-(2-Bromo-3-cyanophenyl)-6-(4-t-butoxycarbonylmorpholin-2-yl)-5-cyano-4,7-dihydro-2H-pyrazolo[3,4-b]pyridine] showed a melting point of 219 °C. With `N#CC1=C(C2CCCCC2)Nc2n[nH]cc2C1c1cccc2nonc12` (centres unmarked) [Example 323, 4-(2,1,3-Benzoxadiazol-4-yl)-5-cyano-6-cyclohexyl-4,7-dihydro-2H-pyrazolo[3,4-b]pyridine] the melting point was 210 °C. `O=C1OCC2=C1C(c1ccccc1Cl)c1c[nH]nc1N2` (centres unmarked) [Example 96, 4-(2-Chlorophenyl)-2,4,7,8-tetrahydrofurano[3,4-b]pyrazolo[4,3-e]pyridin-5-one] showed a melting point of over 270 °C. `CCCC1=C(C(=O)OCC)C(c2ccccc2N)c2c[nH]nc2N1` (centres unmarked) [Example 99, Ethyl 4-(2-aminophenyl)-4,7-dihydro-6-propyl-2H-pyrazolo[3,4-b]pyridine-5-carboxylate] gave a melting point of 179 °C. In the case of `CCCC1=C(C#N)C(c2cccc(C#N)c2Cl)c2c[nH]nc2N1` (centres unmarked) [Example 184, 4-(2-Chloro-3-cyanophenyl)-5-cyano-4,7-dihydro-6-propyl-2H-pyrazolo[3,4-b]pyridine], the melting point was over 250 °C. With `CCCC1=C(C(=O)OCC)C(c2cc(Cl)ccc2Cl)c2c[nH]nc2N1` (centres unmarked) [Example 50, Ethyl 4-(2,5-dichlorophenyl)-4,7-dihydro-6-propyl-2H-pyrazolo[3,4-b]pyridine-5-carboxylate] the melting point was 162 °C. With `N#CC1=C(C2CCCC2)Nc2n[nH]cc2C1c1ccccc1Cl` (centres unmarked) [Example 316, 4-(2-Chlorophenyl)-5-cyano-6-cyclopentyl-4,7-dihydro-2H-pyrazolo[3,4-b]pyridine] the melting point was 225 °C. With `N#CC1=C(C2CCN(C(=N)N)CC2)Nc2n[nH]cc2C1c1cccc2nonc12` (centres unmarked) [Example 1031, 4-(2,1,3-Benzoxadiazol-4-yl)-5-cyano-4,7-dihydro-6-(1-guanylpiperidin-4-yl)-2H-pyrazolo[3,4-b]pyridine] the melting point was over 270 °C. `CCCC1=C(C(=O)OCC)C(c2ccccc2)c2c[nH]nc2N1.O=C(O)/C=C\C(=O)O` (centres unmarked) [Example 25, Ethyl 4,7-dihydro-4-phenyl-6-propyl-2H-pyrazolo[3,4-b]pyridine-5-carboxylate maleate] showed a melting point of 139 to 141 °C. Compound `N#CC1=C(c2ccccc2)Nc2n[nH]cc2C1c1cccc2c1OCCC2` (centres unmarked) [Example 148, 5-Cyano-4-(3,4-dihydro-2H-benzopyran-8-yl)-4,7-dihydro-6-phenyl-2H-pyrazolo[3,4-b]pyridine] has a melting point of 255 °C. For `CCOC(=O)C1=C(CC)Nc2n[nH]cc2C1c1ccccc1Cl` (centres unmarked) [Example 82, Ethyl 4-(2-chlorophenyl)-6-ethyl-4,7-dihydro-2H-pyrazolo[3,4-b]pyridine-5-carboxylate], the melting point was 213 °C. In the case of `N#CC1=C(c2cccs2)Nc2n[nH]cc2C1c1ccccc1Cl` (centres unmarked) [Example 241, 4-(2-Chlorophenyl)-5-cyano-4,7-dihydro-6-(thiophen-2-yl)-2H-pyrazolo[3,4-b]pyridine], the melting point was 174 °C. With `CCC1=C(C#N)C(c2cccc(C#N)c2Cl)c2c[nH]nc2N1` (centres unmarked) [Example 195, 4-(2-Chloro-3-cyanophenyl)-5-cyano-6-ethyl-4,7-dihydro-2H-pyrazolo[3,4-b]pyridine] the melting point was over 300 °C. In the case of `CCCC1=C(C#N)C(c2ccccc2Cl)c2c[nH]nc2N1C` (centres unmarked) [Example 346, 4-(2-Chlorophenyl)-5-cyano-7-methyl-6-propyl-4,7-dihydro-2H-pyrazolo[3,4-b]pyridine], the melting point was 170 to 171 °C. In the case of `CCCC1=C(C#N)C(c2ccccc2C)c2c[nH]nc2N1` (centres unmarked) [Example 131, 5-Cyano-4,7-dihydro-4-(2-methylphenyl)-6-propyl-2H-pyrazolo[3,4-b]pyridine], the melting point was 230 °C. In the case of `N#CC1=C(c2ccccc2)Nc2n[nH]cc2C1c1cccc2nonc12` (centres unmarked) [Example 158, 4-(2,1,3-Benzoxadiazol-4-yl)-5-cyano-4,7-dihydro-6-phenyl-2H-pyrazolo[3,4-b]pyridine], the melting point was 231 °C. Compound `CNCC1=C(C#N)C(c2cccc3nonc23)c2c[nH]nc2N1.O=C(O)C(F)(F)F` (centres unmarked) has a melting point of 174 °C. For `CCCC1=C(C(=O)OCC)C(c2ccc(Cl)s2)c2c[nH]nc2N1.O=C(O)/C=C\C(=O)O` (centres unmarked) [Example 64, Ethyl 4-(5-chlorothiophen-2-yl)-4,7-dihydro-6-propyl-2H-pyrazolo[3,4-b]pyridine-5-carboxylate maleate], the melting point was 129 to 131 °C. `N#CC1=C(c2c[nH]c3ccccc23)Nc2n[nH]cc2C1c1cccc2nonc12` (centres unmarked) [Example 335, 4-(2,1,3-Benzoxadiazol-4-yl)-5-cyano-4,7-dihydro-6-(indol-3-yl)-2H-pyrazolo[3,4-b]pyridine] gave a melting point of 238 °C. Compound `CCOC(=O)C1=C(C(F)(F)F)Nc2n[nH]cc2C1c1cccs1` (centres unmarked) [Example 22, Ethyl 4,7-dihydro-4-(thiophen-2-yl)-6-trifluoromethyl-2H-pyrazolo[3,4-b]pyridine-5-carboxylate] has a melting point of 157 to 161 °C. In the case of `CCCC1=C(C(=O)OCC)C(c2ccccc2C#N)c2c[nH]nc2N1` (centres unmarked) [Example 42, Ethyl 4-(2-cyanophenyl)-4,7-dihydro-6-propyl-2H-pyrazolo[3,4-b]pyridine-5-carboxylate], the melting point was 211 °C. `CCCC1=C(C#N)C(c2cccc(Cl)c2Cl)c2c[nH]nc2N1` (centres unmarked) [Example 134, 5-Cyano-4-(2,3-dichlorophenyl)-4,7-dihydro-6-propyl-2H-pyrazolo[3,4-b]pyridine] showed a melting point of 242 °C. Work on `Cc1cccc(C2C(C#N)=C(C3CC3)Nc3n[nH]cc32)c1[N+](=O)[O-]` (centres unmarked) [Example 340, 5-Cyano-6-cyclopropyl-4,7-dihydro-4-(3-methyl-2-nitrophenyl)-2H-pyrazolo[3,4-b]pyridine] yielded a melting point of 265 °C. `CCCC1=C(C#N)C(c2cccc3nonc23)c2c[nH]nc2N1` (centres unmarked) [Example 137, 4-(2,1,3-Benzoxadiazol-4-yl)-5-cyano-4,7-dihydro-6-propyl-2H-pyrazolo[3,4-b]pyridine] gave a melting point of 194 °C. Work on `N#CC1=C(c2ccccc2)Nc2n[nH]cc2C1c1ccccc1[N+](=O)[O-]` (centres unmarked) [Example 154, 5-Cyano-4,7-dihydro-4-(2-nitrophenyl)-6-phenyl-2H-pyrazolo[3,4-b]pyridine] yielded a melting point of 221 °C. `N#CC1=C(c2cccc3ccccc23)Nc2n[nH]cc2C1c1cccc2nonc12` (centres unmarked) [Example 169, 4-(2,1,3-Benzoxadiazol-4-yl)-5-cyano-4,7-dihydro-6-(naphthalen-1-yl)-2H-pyrazolo[3,4-b]pyridine] showed a melting point of 213 °C. In the case of `N#CC1=C(c2ccco2)Nc2n[nH]cc2C1c1cccc2nonc12` (centres unmarked) [Example 173, 4-(2,1,3-Benzoxadiazol-4-yl)-5-cyano-6-(furan-2-yl)-4,7-dihydro-2H-pyrazolo[3,4-b]pyridine], the melting point was 237 °C. In the case of `COc1ccccc1C1=C(C#N)C(c2ccccc2[N+](=O)[O-])c2c[nH]nc2N1` (centres unmarked) [Example 155, 5-Cyano-4,7-dihydro-6-(2-methoxyphenyl)-4-(2-nitrophenyl)-2H-pyrazolo[3,4-b]pyridine], the melting point was 207 °C. `CCOC(=O)C1=C(c2ccccc2)Nc2n[nH]cc2C1c1ccccc1Cl` (centres unmarked) [Example 85, Ethyl 4-(2-chlorophenyl)-4,7-dihydro-6-phenyl-2H-pyrazolo[3,4-b]pyridine-5-carboxylate] gave a melting point of 214 °C. `CCCC1=C(C(=O)OCC)C(c2ccc(Cl)cc2)c2c[nH]nc2N1` (centres unmarked) [Example 235, Ethyl 4-(4-chlorophenyl)-4,7-dihydro-6-propyl-2H-pyrazolo[3,4-b]pyridine-5-carboxylate] gave a melting point of 159 to 161 °C. `CN1CCC(C2=C(C#N)C(c3cccc(C#N)c3Br)c3c[nH]nc3N2)CC1` (centres unmarked) [Example 1038, 4-(2-Bromo-3-cyanophenyl)-5-cyano-4,7-dihydro-6-(1-methylpiperidin-4-yl)-2H-pyrazolo[3,4-b]pyridine] gave a melting point of over 270 °C. With `CCCC1=C(c2ccccn2)C(c2cccc(C#N)c2Br)c2c[nH]nc2N1` (centres unmarked) [Example 1084, 4-(2-Bromo-3-cyanophenyl)-5-(pyridin-2-yl)-4,7-dihydro-6-propyl-2H-pyrazolo[3,4-b]pyridine] the melting point was 205 to 208 °C (dec.). For `CCCC1=C(C(=O)OCC)C(c2c(F)cccc2Cl)c2c[nH]nc2N1` (centres unmarked) [Example 56, Ethyl 4-(2-chloro-6-fluorophenyl)-4,7-dihydro-6-propyl-2H-pyrazolo[3,4-b]pyridine-5-carboxylate], the melting point was 180 to 183 °C. In the case of `CCCC1=C(C#N)C(c2ccccc2Cl)c2c(n[nH]c2C(OC)OC)N1` (centres unmarked) [Example 336, 4-(2-Chlorophenyl)-5-cyano-4,7-dihydro-3-dimethoxymethyl-6-propyl-2H-pyrazolo[3,4-b]pyridine], the melting point was 212 °C. `CCC1=C(C#N)C(c2cccc(Cl)c2Cl)c2c[nH]nc2N1` (centres unmarked) [Example 193, 5-Cyano-4-(2,3-dichlorophenyl)-6-ethyl-4,7-dihydro-2H-pyrazolo[3,4-b]pyridine] showed a melting point of over 300 °C. `CCCC1=C([N+](=O)[O-])C(c2ccccc2Cl)c2c[nH]nc2N1` (centres unmarked) [Example 93, 4-(2-Chlorophenyl)-4,7-dihydro-5-nitro-6-propyl-2H-pyrazolo[3,4-b]pyridine] showed a melting point of 228 °C. Compound `CCCC1=C(C#N)C(c2ccccc2Cl)c2c(OC(=O)OC(C)(C)C)n[nH]c2N1` (centres unmarked) [Example 328, 3-t-Butoxycarbonyloxy-4-(2-chlorophenyl)-5-cyano-4,7-dihydro-6-propyl-1 H-pyrazolo[3,4-b]pyridine] has a melting point of 182 °C. With `CCCC1=C([N+](=O)[O-])C(c2ccccc2[N+](=O)[O-])c2c[nH]nc2N1` (centres unmarked) the melting point was 204 °C. `CCCC1=C(C(=O)OCC)C(c2ccccc2Cl)c2cn(C(=O)OC)nc2N1` (centres unmarked) [Example 207, Ethyl 4-(2-chlorophenyl)-4,7-dihydro-2-methoxycarbonyl-6-propyl-2H-pyrazolo[3,4-b]pyridine-5-carboxylate] showed a melting point of 141 to 143 °C. For `N#CC1=C(CO)Nc2n[nH]cc2C1c1ccccc1Cl` (centres unmarked) [Example 252, 4-(2-Chlorophenyl)-5-cyano-4,7-dihydro-6-hydroxymethyl-2H-pyrazolo[3,4-b]pyridine], the melting point was 205 to 210 °C (dec.).

Source: patent US6977262B2, “Dihydropyrazolopyridine compounds and pharmaceutical use thereof” (Mitsubishi Pharma Corporation, priority 2001, dated 2005)
